Reference: ChEMBL document CHEMBL4359841, “Late-Stage Functionalization of Platensimycin Leading to Multiple Analogues with Improved Antibacterial Activity in Vitro and in Vivo” (2019)
≈ marks a conversion by molar mass, not a printed value. Calls of active or inactive are those of the source. No cut-off for these calls is given here.

What was measured:
Staphylococcus aureus [1] = experiment: Inhibition of FabB/FabF in Staphylococcus aureus ATCC 29213 assessed as antibacterial activity after 16 hrs by agar dilution method
Staphylococcus aureus [2] = experiment: Inhibition of FabB/FabF in methicillin-sensitive Staphylococcus aureus assessed as antibacterial activity after 16 hrs by agar dilution method
Staphylococcus aureus [3] = experiment: Inhibition of FabB/FabF in methicillin-resistant Staphylococcus aureus assessed as antibacterial activity after 16 hrs by agar dilution method
Staphylococcus aureus [4] = experiment: Inhibition of FabB/FabF in methicillin-resistant Staphylococcus aureus 2951 clinical isolate assessed as antibacterial activity after 16 hrs by agar dilution method
Staphylococcus aureus [5] = experiment: Inhibition of FabB/FabF in methicillin-resistant Staphylococcus aureus 2957 clinical isolate assessed as antibacterial activity after 16 hrs by agar dilution method
Staphylococcus aureus [6] = experiment: Inhibition of FabB/FabF in methicillin-resistant Staphylococcus aureus 2959 clinical isolate assessed as antibacterial activity after 16 hrs by agar dilution method
Staphylococcus aureus [7] = experiment: Inhibition of FabB/FabF in methicillin-resistant Staphylococcus aureus 2968 clinical isolate assessed as antibacterial activity after 16 hrs by agar dilution method
Staphylococcus aureus [8] = experiment: Inhibition of FabB/FabF in methicillin-resistant Staphylococcus aureus 2976 clinical isolate assessed as antibacterial activity after 16 hrs by agar dilution method
Staphylococcus aureus [9] = experiment: Inhibition of FabB/FabF in methicillin-resistant Staphylococcus aureus 2978 clinical isolate assessed as antibacterial activity after 16 hrs by agar dilution method
Staphylococcus aureus [10] = experiment: Inhibition of FabB/FabF in methicillin-resistant Staphylococcus aureus 2984 clinical isolate assessed as antibacterial activity after 16 hrs by agar dilution method
Staphylococcus aureus [11] = experiment: Inhibition of FabB/FabF in methicillin-resistant Staphylococcus aureus 2985 clinical isolate assessed as antibacterial activity after 16 hrs by agar dilution method
Staphylococcus aureus [12] = experiment: Inhibition of FabB/FabF in methicillin-resistant Staphylococcus aureus 3046 clinical isolate assessed as antibacterial activity after 16 hrs by agar dilution method
Staphylococcus aureus [13] = experiment: Inhibition of FabB/FabF in methicillin-resistant Staphylococcus aureus 3065 clinical isolate assessed as antibacterial activity after 16 hrs by agar dilution method
Staphylococcus aureus [14] = experiment: Inhibition of FabB/FabF in methicillin-resistant Staphylococcus aureus 3071 clinical isolate assessed as antibacterial activity after 16 hrs by agar dilution method
Staphylococcus aureus [15] = experiment: Inhibition of FabB/FabF in methicillin-resistant Staphylococcus aureus 3074 clinical isolate assessed as antibacterial activity after 16 hrs by agar dilution method
Staphylococcus aureus [16] = experiment: Inhibition of FabB/FabF in methicillin-resistant Staphylococcus aureus 3082 clinical isolate assessed as antibacterial activity after 16 hrs by agar dilution method
Staphylococcus aureus [17] = experiment: Inhibition of FabB/FabF in methicillin-resistant Staphylococcus aureus 3086 clinical isolate assessed as antibacterial activity after 16 hrs by agar dilution method
Staphylococcus aureus [18] = experiment: Inhibition of FabB/FabF in methicillin-resistant Staphylococcus aureus 3093 clinical isolate assessed as antibacterial activity after 16 hrs by agar dilution method
Staphylococcus aureus [19] = experiment: Inhibition of FabB/FabF in methicillin-resistant Staphylococcus aureus 3094 clinical isolate assessed as antibacterial activity after 16 hrs by agar dilution method
Staphylococcus aureus [20] = experiment: Inhibition of FabB/FabF in methicillin-resistant Staphylococcus aureus 3095 clinical isolate assessed as antibacterial activity after 16 hrs by agar dilution method
Staphylococcus aureus [21] = experiment: Inhibition of FabB/FabF in methicillin-resistant Staphylococcus aureus 3097 clinical isolate assessed as antibacterial activity after 16 hrs by agar dilution method
Staphylococcus aureus [22] = experiment: Inhibition of FabB/FabF in methicillin-resistant Staphylococcus aureus 3103 clinical isolate assessed as antibacterial activity after 16 hrs by agar dilution method
Staphylococcus aureus [23] = experiment: Inhibition of FabB/FabF in methicillin-resistant Staphylococcus aureus 3104 clinical isolate assessed as antibacterial activity after 16 hrs by agar dilution method
Staphylococcus aureus [24] = experiment: Inhibition of FabB/FabF in methicillin-resistant Staphylococcus aureus 3105 clinical isolate assessed as antibacterial activity after 16 hrs by agar dilution method
Staphylococcus aureus [25] = experiment: Inhibition of FabB/FabF in methicillin-resistant Staphylococcus aureus 3110 clinical isolate assessed as antibacterial activity after 16 hrs by agar dilution method
Staphylococcus aureus [26] = experiment: Inhibition of FabB/FabF in methicillin-resistant Staphylococcus aureus 3111 clinical isolate assessed as antibacterial activity after 16 hrs by agar dilution method
Staphylococcus aureus [27] = experiment: Inhibition of FabB/FabF in methicillin-resistant Staphylococcus aureus 3114 clinical isolate assessed as antibacterial activity after 16 hrs by agar dilution method
Staphylococcus aureus [28] = experiment: Inhibition of FabB/FabF in methicillin-resistant Staphylococcus aureus 3116 clinical isolate assessed as antibacterial activity after 16 hrs by agar dilution method
Staphylococcus aureus [29] = experiment: Inhibition of FabB/FabF in methicillin-resistant Staphylococcus aureus 3140 clinical isolate assessed as antibacterial activity after 16 hrs by agar dilution method
Staphylococcus aureus [30] = experiment: Inhibition of FabB/FabF in methicillin-resistant Staphylococcus aureus 3158 clinical isolate assessed as antibacterial activity after 16 hrs by agar dilution method
Staphylococcus aureus [31] = experiment: Inhibition of FabB/FabF in methicillin-resistant Staphylococcus aureus 3161 clinical isolate assessed as antibacterial activity after 16 hrs by agar dilution method
Staphylococcus aureus [32] = experiment: Inhibition of FabB/FabF in methicillin-resistant Staphylococcus aureus 3163 clinical isolate assessed as antibacterial activity after 16 hrs by agar dilution method
Staphylococcus aureus [33] = experiment: Inhibition of FabB/FabF in methicillin-resistant Staphylococcus aureus 3182 clinical isolate assessed as antibacterial activity after 16 hrs by agar dilution method
Staphylococcus aureus [34] = experiment: Inhibition of FabB/FabF in methicillin-resistant Staphylococcus aureus 3188 clinical isolate assessed as antibacterial activity after 16 hrs by agar dilution method
Staphylococcus aureus [35] = experiment: Inhibition of FabB/FabF in methicillin-resistant Staphylococcus aureus 3193 clinical isolate assessed as antibacterial activity after 16 hrs by agar dilution method
Staphylococcus aureus [36] = experiment: Inhibition of FabB/FabF in methicillin-resistant Staphylococcus aureus 3196 clinical isolate assessed as antibacterial activity after 16 hrs by agar dilution method
Staphylococcus aureus [37] = experiment: Inhibition of FabB/FabF in methicillin-sensitive Staphylococcus aureus 2952 clinical isolate assessed as antibacterial activity after 16 hrs by agar dilution method
Staphylococcus aureus [38] = experiment: Inhibition of FabB/FabF in methicillin-sensitive Staphylococcus aureus 2955 clinical isolate assessed as antibacterial activity after 16 hrs by agar dilution method
Staphylococcus aureus [39] = experiment: Inhibition of FabB/FabF in methicillin-resistant Staphylococcus aureus 2962 clinical isolate assessed as antibacterial activity after 16 hrs by agar dilution method
Staphylococcus aureus [40] = experiment: Inhibition of FabB/FabF in methicillin-sensitive Staphylococcus aureus 2956 clinical isolate assessed as antibacterial activity after 16 hrs by agar dilution method
Staphylococcus aureus [41] = experiment: Antibacterial activity against methicillin-resistant Staphylococcus aureus infected in C57BL/6J mouse model of peritonitis assessed as mouse survival at 10 mg/kg, ip dosed at 1 hr and 5 hrs post infection and measured for 7 days relative to control; type: functional

C[C@]12C[C@@]34C=C(SC5CCCCC5)C(=O)[C@@](C)(CCC(=O)Nc5c(O)ccc(C(=O)O)c5O)[C@@H]3[C@H](C[C@@H]1C4)O2
MIC (Staphylococcus aureus [1]): 0.5 µg/mL (≈ 0.9 µM) | MIC (Staphylococcus aureus [2]): 0.25 µg/mL (≈ 0.45 µM) | MIC (Staphylococcus aureus [3]): 0.25 µg/mL (≈ 0.45 µM) | inhibition (Staphylococcus aureus [4]): Active | inhibition (Staphylococcus aureus [5]): Active | inhibition (Staphylococcus aureus [6]): Active | inhibition (Staphylococcus aureus [7]): Active | inhibition (Staphylococcus aureus [8]): Active | inhibition (Staphylococcus aureus [9]): Active | inhibition (Staphylococcus aureus [10]): Active | inhibition (Staphylococcus aureus [11]): Active | inhibition (Staphylococcus aureus [12]): Active | inhibition (Staphylococcus aureus [13]): Active | inhibition (Staphylococcus aureus [14]): Active | inhibition (Staphylococcus aureus [15]): Active | inhibition (Staphylococcus aureus [16]): Active | inhibition (Staphylococcus aureus [17]): Active | inhibition (Staphylococcus aureus [18]): Active | inhibition (Staphylococcus aureus [19]): Active | inhibition (Staphylococcus aureus [20]): Active | inhibition (Staphylococcus aureus [21]): Active | inhibition (Staphylococcus aureus [22]): Active | inhibition (Staphylococcus aureus [23]): Active | inhibition (Staphylococcus aureus [24]): Active | inhibition (Staphylococcus aureus [25]): Active | inhibition (Staphylococcus aureus [26]): Active | inhibition (Staphylococcus aureus [27]): Active | inhibition (Staphylococcus aureus [28]): Active | inhibition (Staphylococcus aureus [29]): Active | inhibition (Staphylococcus aureus [30]): Active | inhibition (Staphylococcus aureus [31]): Active | inhibition (Staphylococcus aureus [32]): Active | inhibition (Staphylococcus aureus [33]): Active | inhibition (Staphylococcus aureus [34]): Active | inhibition (Staphylococcus aureus [35]): Active | inhibition (Staphylococcus aureus [36]): Active | inhibition (Staphylococcus aureus [37]): Active | inhibition (Staphylococcus aureus [38]): Active | inhibition (Staphylococcus aureus [39]): Active | inhibition (Staphylococcus aureus [40]): Active | survival at 10 mg/kg (Staphylococcus aureus [41]): > 60%

C[C@]12C[C@@]34C=CC(=O)[C@@](C)(CCC(=O)Nc5c(O)ccc(C(=O)O)c5O)[C@@H]3[C@H](C[C@@H]1C4)O2
MIC (Staphylococcus aureus [1]): 1 µg/mL (≈ 2.27 µM) | MIC (Staphylococcus aureus [2]): 0.5 µg/mL (≈ 1.13 µM) | MIC (Staphylococcus aureus [3]): 0.5 µg/mL (≈ 1.13 µM) | MIC (Staphylococcus aureus [4]): 1 µg/mL (≈ 2.27 µM) | MIC (Staphylococcus aureus [5]): 1 µg/mL (≈ 2.27 µM) | MIC (Staphylococcus aureus [6]): 1 µg/mL (≈ 2.27 µM) | MIC (Staphylococcus aureus [7]): 1 µg/mL (≈ 2.27 µM) | MIC (Staphylococcus aureus [8]): 1 µg/mL (≈ 2.27 µM) | MIC (Staphylococcus aureus [9]): 1 µg/mL (≈ 2.27 µM) | MIC (Staphylococcus aureus [10]): 1 µg/mL (≈ 2.27 µM) | MIC (Staphylococcus aureus [11]): 1 µg/mL (≈ 2.27 µM) | MIC (Staphylococcus aureus [12]): 1 µg/mL (≈ 2.27 µM) | MIC (Staphylococcus aureus [13]): 1 µg/mL (≈ 2.27 µM) | MIC (Staphylococcus aureus [14]): 1 µg/mL (≈ 2.27 µM) | MIC (Staphylococcus aureus [15]): 1 µg/mL (≈ 2.27 µM) | MIC (Staphylococcus aureus [16]): 1 µg/mL (≈ 2.27 µM) | MIC (Staphylococcus aureus [17]): 1 µg/mL (≈ 2.27 µM) | MIC (Staphylococcus aureus [18]): 1 µg/mL (≈ 2.27 µM) | MIC (Staphylococcus aureus [19]): 1 µg/mL (≈ 2.27 µM) | MIC (Staphylococcus aureus [20]): 1 µg/mL (≈ 2.27 µM) | MIC (Staphylococcus aureus [21]): 1 µg/mL (≈ 2.27 µM) | MIC (Staphylococcus aureus [22]): 1 µg/mL (≈ 2.27 µM) | MIC (Staphylococcus aureus [23]): 1 µg/mL (≈ 2.27 µM) | MIC (Staphylococcus aureus [24]): 1 µg/mL (≈ 2.27 µM) | MIC (Staphylococcus aureus [25]): 1 µg/mL (≈ 2.27 µM) | MIC (Staphylococcus aureus [26]): 1 µg/mL (≈ 2.27 µM) | MIC (Staphylococcus aureus [27]): 1 µg/mL (≈ 2.27 µM) | MIC (Staphylococcus aureus [28]): 1 µg/mL (≈ 2.27 µM) | MIC (Staphylococcus aureus [29]): 1 µg/mL (≈ 2.27 µM) | MIC (Staphylococcus aureus [30]): 1 µg/mL (≈ 2.27 µM) | MIC (Staphylococcus aureus [31]): 1 µg/mL (≈ 2.27 µM) | MIC (Staphylococcus aureus [32]): 1 µg/mL (≈ 2.27 µM) | MIC (Staphylococcus aureus [33]): 1 µg/mL (≈ 2.27 µM) | MIC (Staphylococcus aureus [34]): 1 µg/mL (≈ 2.27 µM) | MIC (Staphylococcus aureus [35]): 1 µg/mL (≈ 2.27 µM) | MIC (Staphylococcus aureus [36]): 1 µg/mL (≈ 2.27 µM) | MIC (Staphylococcus aureus [37]): 1 µg/mL (≈ 2.27 µM) | MIC (Staphylococcus aureus [38]): 1 µg/mL (≈ 2.27 µM) | MIC (Staphylococcus aureus [39]): 1 µg/mL (≈ 2.27 µM) | MIC (Staphylococcus aureus [40]): 1 µg/mL (≈ 2.27 µM) | Survival (Staphylococcus aureus [41]): inactive
